# Data taken from patent US20230085307A1, “PYRIDAZINONE COMPOUND AND HERBICIDE” (NISSAN CHEMICAL CORPORATION, priority 2019, published 2023).
# Assays:
# [1] = test system: lambsquarters; experiment: Test Example 4: herbicidal effect by soil treatment (Table 19, symbol O); type: in vivo, lambsquarters (Chenopodium album)
# How it was run: (§1)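 Seeds were sown in sterilized diluvial soil and covered with about 1.5 cm of soil. An emulsion formulation diluted with water to a predetermined herbicide amount was sprayed evenly onto the soil surface. Plants grew in a greenhouse at 25° C. to 30° C., and the effect was scored three weeks after application using criteria from an earlier test.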
# [2] = test system: velvetleaf; experiment: Test Example 5: herbicidal effect by foliage application, plastic box (Table 20, symbol M); type: in vivo, velvetleaf (Abutilon theophrasti); conditions: foliage application; for effect on velvetleaf (M): 3 weeks after application
# How it was run: (§2)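 Plants sown in sterilized diluvial soil and grown 14 days in a greenhouse at 25° C to 30° C, then sprayed on the foliage with the compound's emulsion diluted in water to a predetermined herbicide amount. Injury to weeds and crops scored three weeks after application on a visual rating scale.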
# [3] = test system: windgrass; experiment: Test Example 5: herbicidal effect by foliage application, plastic box (Table 20, symbol L); type: in vivo, windgrass (Apera spica-venti); conditions: foliage application; for effect on windgrass (L): 3 weeks after application
# How it was run: as §2
# [4] = test system: chickweed; experiment: Test Example 5: herbicidal effect by foliage application, plastic box (Table 20, symbol P); type: in vivo, common chickweed (Stellaria media); conditions: foliage application
# How it was run: as §2
# [5] = test system: lambsquarters; experiment: Test Example 5: herbicidal effect by foliage application, plastic box (Table 20, symbol O); type: in vivo, lambsquarters (Chenopodium album); conditions: foliage application; for effect on lambsquarters (O): 3 weeks after application
# How it was run: as §2
# [6] = test system: Japanese bulrush; experiment: Test Example 2: herbicidal activity, application during weed generation under submerged conditions (Table 17, symbol B); type: in vivo, Japanese bulrush (Schoenoplectus juncoides); conditions: AAH 320 g/ha; application during weed generation, submerged conditions
# How it was run: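 Mixed weed seedlings in alluvial soil under a 4 cm water layer, greenhouse-grown at 25–30° C. Compound given as a diluted emulsion into the floodwater at the 1–2 leaf stage; response graded after three weeks.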
# [7] = test system: oval-leafed pondweed; experiment: Test Example 1: herbicidal activity, application before weed generation under submerged conditions (Table 16, symbol C); type: in vivo, oval-leafed pondweed (Monochoria vaginalis); conditions: 320 g/ha applied herbicide
# How it was run: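 Alluvial soil was flooded to 4 cm depth, weed seeds were sown mixed and 2.5-leaf rice seedlings were transplanted. On sowing day, the compound's emulsion, diluted in water to a set dose, was applied to the water surface. Plants grew at 25–30 °C and were scored 0–5 after three weeks.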
# [8] = test system: barnyard grass; experiment: Test Example 4: herbicidal effect by soil treatment (Table 19, symbol H); type: in vivo, barnyard grass (Echinochloa crus-galli)
# How it was run: as §1
# [9] = test system: wild oat; experiment: Test Example 4: herbicidal effect by soil treatment (Table 19, symbol I); type: in vivo, wild oat (Avena fatua)
# How it was run: as §1
# [10] = test system: blackgrass; experiment: Test Example 4: herbicidal effect by soil treatment (Table 19, symbol J); type: in vivo, blackgrass (Alopecurus myosuroides)
# How it was run: as §1
# [11] = test system: green foxtail; experiment: Test Example 4: herbicidal effect by soil treatment (Table 19, symbol G); type: in vivo, green foxtail (Setaria viridis)
# How it was run: as §1
# [12] = test system: southern crabgrass; experiment: Test Example 5: herbicidal effect by foliage application, plastic box (Table 20, symbol F); type: in vivo, southern crabgrass (Digitaria ciliaris); conditions: foliage application; for effect on southern crabgrass (F): 3 weeks after application
# How it was run: as §2
# [13] = test system: persian speedwell; experiment: Test Example 5: herbicidal effect by foliage application, plastic box (Table 20, symbol R); type: in vivo, Persian speedwell (Veronica persica); conditions: foliage application; for effect on persian speedwell (R): 3 weeks after application
# How it was run: as §2
# [14] = test system: southern crabgrass; experiment: Test Example 4: herbicidal effect by soil treatment (Table 19, symbol F); type: in vivo, southern crabgrass (Digitaria ciliaris)
# How it was run: as §1
# [15] = test system: velvetleaf; experiment: Test Example 4: herbicidal effect by soil treatment (Table 19, symbol M); type: in vivo, velvetleaf (Abutilon theophrasti)
# How it was run: as §1
# [16] = test system: chickweed; experiment: Test Example 4: herbicidal effect by soil treatment (Table 19, symbol P); type: in vivo, common chickweed (Stellaria media); conditions: for herbicidal effect rating, P: chickweed: 320 g/ha
# How it was run: as §1
# [17] = test system: persian speedwell; experiment: Test Example 4: herbicidal effect by soil treatment (Table 19, symbol R); type: in vivo, Persian speedwell (Veronica persica); conditions: 320 g/ha
# How it was run: as §1
# [18] = amount of applied herbicide 320 g/ha
# [19] = AAH 320 g/ha, three weeks after application
# [20] = AAH 320 g/ha, evaluated three weeks after application
# [21] = 320 g/ha, evaluated three weeks after application
Structure (SMILES),"herbicidal effect rating, B: Japanese bulrush [6]",Herbicidal effect on C: oval-leafed pondweed (grade 0-5) [7],"herbicidal effect rating, O: lambsquarters ([1]; 320 g/ha)","herbicidal effect rating, P: chickweed [16]",effect on velvetleaf (M) ([2]; 320 g/ha),effect on windgrass (L) ([3]; 320 g/ha),effect on lambsquarters (O) ([5]; 320 g/ha),"herbicidal effect rating, H: barnyard grass ([8]; 320 g/ha)","herbicidal effect rating, I: wild oat ([9]; 320 g/ha)","herbicidal effect rating, J: blackgrass ([10]; 320 g/ha)","herbicidal effect rating, G: green foxtail ([11]; 320 g/ha)",effect on southern crabgrass (F) ([12]; 320 g/ha),effect on persian speedwell (R) ([13]; 320 g/ha),"herbicidal effect rating, F: southern crabgrass ([14]; 320 g/ha)","herbicidal effect rating, M: velvetleaf ([15]; 320 g/ha)","herbicidal effect rating, R: persian speedwell [17]",further results
Cc1nn(C)c(=O)c(-c2c(-c3ccc4c(c3)OCCO4)sc3ccccc23)c1O [1-089],1 (Herbicidal rate of 5% or more and less than 20%),4 (Herbicidal rate of 70% or more and less than 90%),,,,,,,,,,,,,,,"herbicidal effect rating, O: lambsquarters [1, 18]: 5 (Herbicidal rate of 90% or more (almost completely withered)); M: velvetleaf, herbicidal effect [2, 19]: 5 (Herbicidal rate of 90% or more (almost completely withered)); L: windgrass, herbicidal effect [3, 19]: 4 (Herbicidal rate of 70% or more and less than 90%); P: chickweed, herbicidal effect [4, 19]: 5 (Herbicidal rate of 90% or more (almost completely withered)); O: lambsquarters, herbicidal effect [5, 19]: 3 (Herbicidal rate of 40% or more and less than 70%); herbicidal effect rating, H: barnyard grass [8, 18]: 5 (Herbicidal rate of 90% or more (almost completely withered)); herbicidal effect rating, I: wild oat [9, 18]: 0 (Herbicidal rate of 5% or less (almost no effect)); herbicidal effect rating, J: blackgrass [10, 18]: 0 (Herbicidal rate of 5% or less (almost no effect)); herbicidal effect rating, G: green foxtail [11, 18]: 5 (Herbicidal rate of 90% or more (almost completely withered)); F: southern crabgrass, herbicidal effect [12, 19]: 4 (Herbicidal rate of 70% or more and less than 90%); R: persian speedwell, herbicidal effect [13, 19]: 5 (Herbicidal rate of 90% or more (almost completely withered)); herbicidal effect rating, F: southern crabgrass [14, 18]: 3 (Herbicidal rate of 40% or more and less than 70%); herbicidal effect rating, M: velvetleaf [15, 18]: 2 (Herbicidal rate of 20% or more and less than 40%)"
Cc1nn(C)c(=O)c(-c2c(-c3ccccc3OC(F)(F)F)sc3ccc(F)cc23)c1O [2-043],2 (Herbicidal rate of 20% or more and less than 40%),1 (Herbicidal rate of 5% or more and less than 20%),5 (Herbicidal rate of 90% or more (almost completely withered)),1 (Herbicidal rate of 5% or more and less than 20%),5 (Herbicidal rate of 90% or more (almost completely withered)),3 (Herbicidal rate of 40% or more and less than 70%),4 (Herbicidal rate of 70% or more and less than 90%),4 (Herbicidal rate of 70% or more and less than 90%),0 (Herbicidal rate of 5% or less (almost no effect)),0 (Herbicidal rate of 5% or less (almost no effect)),5 (Herbicidal rate of 90% or more (almost completely withered)),4 (Herbicidal rate of 70% or more and less than 90%),5 (Herbicidal rate of 90% or more (almost completely withered)),5 (Herbicidal rate of 90% or more (almost completely withered)),3 (Herbicidal rate of 40% or more and less than 70%),,
C=CCSCc1ccc(-c2sc3ccc(F)cc3c2-c2c(O)c(C)nn(C)c2=O)cc1 [2-323],0 (Herbicidal rate of 5% or less (almost no effect)),0 (Herbicidal rate of 5% or less (almost no effect)),,,,,,,,,,,,,,,"herbicidal effect on O: lambsquarters [1, 18]: 3 (Herbicidal rate of 40% or more and less than 70%); herbicidal effect on P: chickweed [16, 18]: 1 (Herbicidal rate of 5% or more and less than 20%); M: velvetleaf, herbicidal effect (criteria 0-5) [2, 20]: 5 (Herbicidal rate of 90% or more (almost completely withered)); L: windgrass, herbicidal effect (criteria 0-5) [3, 20]: 5 (Herbicidal rate of 90% or more (almost completely withered)); P: chickweed, herbicidal effect (criteria 0-5) [4, 20]: 5 (Herbicidal rate of 90% or more (almost completely withered)); O: lambsquarters, herbicidal effect (criteria 0-5) [5, 20]: 5 (Herbicidal rate of 90% or more (almost completely withered)); herbicidal effect on H: barnyard grass [8, 18]: 0 (Herbicidal rate of 5% or less (almost no effect)); herbicidal effect on I: wild oat [9, 18]: 0 (Herbicidal rate of 5% or less (almost no effect)); herbicidal effect on J: blackgrass [10, 18]: 0 (Herbicidal rate of 5% or less (almost no effect)); herbicidal effect on G: green foxtail [11, 18]: 3 (Herbicidal rate of 40% or more and less than 70%); F: southern crabgrass, herbicidal effect (criteria 0-5) [12, 20]: 5 (Herbicidal rate of 90% or more (almost completely withered)); R: persian speedwell, herbicidal effect (criteria 0-5) [13, 20]: 5 (Herbicidal rate of 90% or more (almost completely withered)); herbicidal effect on F: southern crabgrass [14, 18]: 1 (Herbicidal rate of 5% or more and less than 20%); herbicidal effect on M: velvetleaf [15, 18]: 1 (Herbicidal rate of 5% or more and less than 20%)"
"Cc1nn(C)c(=O)c(-c2c(-c3ccc(Cl)cc3)sc3ccc(F)cc23)c1O [Compound No. 2-010, 4-(2-(4-chlorophenyl)-5-fluorobenzo[b]thiophen-3-yl)-5-hydroxy-2,6-dimethylpyridazin-3(2H)-one]",,1 (Herbicidal rate of 5% or more and less than 20%),5 (Herbicidal rate of 90% or more (almost completely withered)),4 (Herbicidal rate of 70% or more and less than 90%),5 (Herbicidal rate of 90% or more (almost completely withered)),5 (Herbicidal rate of 90% or more (almost completely withered)),5 (Herbicidal rate of 90% or more (almost completely withered)),5 (Herbicidal rate of 90% or more (almost completely withered)),1 (Herbicidal rate of 5% or more and less than 20%),0 (Herbicidal rate of 5% or less (almost no effect)),5 (Herbicidal rate of 90% or more (almost completely withered)),5 (Herbicidal rate of 90% or more (almost completely withered)),5 (Herbicidal rate of 90% or more (almost completely withered)),5 (Herbicidal rate of 90% or more (almost completely withered)),5 (Herbicidal rate of 90% or more (almost completely withered)),5 (Herbicidal rate of 90% or more (almost completely withered)),
"COc1cc(F)ccc1-c1sc2ccc(Cl)cc2c1-c1c(O)c(C)nn(C)c1=O [Compound No. 2-095, 4-(5-chloro-2-(4-fluoro-2-methoxyphenyl)benzo[b]thiophen-3-yl)-5-hydroxy-2,6-dimethylpyridazin-3(2H)-one]",,0 (Herbicidal rate of 5% or less (almost no effect)),5 (Herbicidal rate of 90% or more (almost completely withered)),3 (Herbicidal rate of 40% or more and less than 70%),,,,4 (Herbicidal rate of 70% or more and less than 90%),0 (Herbicidal rate of 5% or less (almost no effect)),3 (Herbicidal rate of 40% or more and less than 70%),4 (Herbicidal rate of 70% or more and less than 90%),,,3 (Herbicidal rate of 40% or more and less than 70%),0 (Herbicidal rate of 5% or less (almost no effect)),4 (Herbicidal rate of 70% or more and less than 90%),"herbicidal effect on M: velvetleaf [2, 21]: 5 (Herbicidal rate of 90% or more (almost completely withered)); herbicidal effect on L: windgrass [3, 21]: 5 (Herbicidal rate of 90% or more (almost completely withered)); herbicidal effect on P: chickweed [4, 21]: 5 (Herbicidal rate of 90% or more (almost completely withered)); herbicidal effect on O: lambsquarters [5, 21]: 5 (Herbicidal rate of 90% or more (almost completely withered)); herbicidal effect on F: southern crabgrass [12, 21]: 4 (Herbicidal rate of 70% or more and less than 90%); herbicidal effect on R: persian speedwell [13, 21]: 5 (Herbicidal rate of 90% or more (almost completely withered))"
